Tested on: anti-DNP antibody
Assay: FACS bead model: DNP beads versus acetyl beads with anti-DNP antibody in sera
Type: binding
Settings: FIG. 40; 1,000 ug/mL sera concentration
Experimental: The Mean fluorescence intensity (MFI) separation was greatest at the higher dilution of 1,000 ug/mL sera.

competition with binding of DNP (on a plate) to anti-DNP antibody: direct competition
Compound: O=[N+]([O-])c1ccc(NCCO)c([N+](=O)[O-])c1 [ethanolamine-DNP]

From patent publication US9804168B2, “Biomarker discovery in complex biological fluid using bead or particle based libraries and diagnostic kits and therapeutics” (OPKO Pharmaceuticals, LLC, priority 2011, dated 2017)
